Experiment: solvent given as SMILES
Details: in C1CCCCC1

Row | SMILES | emission maximum [nm]
1 | FC(F)(F)c1cc2n(n1)[B-]1(c3ccccc3-c3ccccc31)[n+]1ccc3ccccc3c1-2 | 490
2 | CC(C)CCC[C@@H](C)[C@H]1CC[C@H]2[C@@H]3CC=C4C[C@@H](OC(=O)Oc5cc(/C=C/C=C/c6ccc(N(C)C)cc6)ccc5[N+](=O)[O-])CC[C@]4(C)[C@H]3CC[C@]12C | 505
3 | CCC(C)(C)c1ccc2c(c1)C(CCOC)(CCOC)c1cc(-c3ccc(-c4ccc5c(c4)C(CCOC)(CCOC)c4cc(C(C)(C)CC)ccc4-5)cc3)ccc1-2 | 380

Same assay, conditions: in C1CCOC1

Row | SMILES | emission maximum [nm]
4 | CSc1sc(C(N)=O)c2nnn(C)c(=O)c12 | 496
5 | CC(C)CCC[C@@H](C)[C@H]1CC[C@H]2[C@@H]3CC=C4C[C@@H](OC(=O)Oc5cc(/C=C/C=C/c6ccc(N(C)C)cc6)ccc5[N+](=O)[O-])CC[C@]4(C)[C@H]3CC[C@]12C | 677
6 | O=C1C2=C(O[B-](F)(F)[n+]3c2ccc2ccccc23)c2ccc(N3CCOCC3)c3cccc1c23 | 545
7 | CCCCCCc1ccc(-n2c3[n+](c4c5ccccc5c5ccccc5c42)[B-](C)(C)c2cc(-n4c5ccccc5c5ccccc54)ccc2-3)cc1 | 409
8 | N#CC(C#N)=Cc1ccc2c(c1)[nH]c1c3ccccc3sc21 | 547
9 | N#CC(C#N)=C(/C=C/c1cn(-c2ccccc2)nc1-c1ccccc1)c1ccccc1 | 459

Same assay, conditions: in C1COCCO1

Row | SMILES | emission maximum [nm]
10 | CC(C)CCC[C@@H](C)[C@H]1CC[C@H]2[C@@H]3CC=C4C[C@@H](OC(=O)Oc5cc(/C=C/C=C/c6ccc(N(C)C)cc6)ccc5[N+](=O)[O-])CC[C@]4(C)[C@H]3CC[C@]12C | 620
11 | N#CC(C#N)=C(/C=C/c1cn(-c2ccccc2)nc1-c1ccccc1)c1ccccc1 | 461

Same assay, conditions: in CC1CCCO1

Row | emission maximum [nm] | SMILES
12 | 472 | O=c1cc2c(S(=O)(=O)O)c(O)c3cccc4ccc(o1)c2c43

Same assay, conditions: in CC#N

Row | emission maximum [nm] | SMILES
13 | 505 | CSc1sc(C(N)=O)c2nnn(C)c(=O)c12
14 | 553 | O=C1C2=C(O[B-](F)(F)[n+]3c2ccc2ccccc23)c2ccc(N3CCOCC3)c3cccc1c23

Row | SMILES | emission maximum [nm]
15 | CCCCCCc1ccc(-n2c3[n+](c4c5ccccc5c5ccccc5c42)[B-](C)(C)c2cc(-n4c5ccccc5c5ccccc54)ccc2-3)cc1 | 409

Same assay, conditions: in CCCCCCC

Row | SMILES | emission maximum [nm]
16 | CC(C)CCC[C@@H](C)[C@H]1CC[C@H]2[C@@H]3CC=C4C[C@@H](OC(=O)Oc5cc(/C=C/C=C/c6ccc(N(C)C)cc6)ccc5[N+](=O)[O-])CC[C@]4(C)[C@H]3CC[C@]12C | 502

Same assay, conditions: in CCO

Row | emission maximum [nm] | SMILES
17 | 337 | Cc1cc(C)nc(N)n1
18 | 519 | CSc1sc(C(N)=O)c2nnn(C)c(=O)c12
19 | 415 | COC(=O)C(NC(=O)CCNc1cccc2ccccc12)C(C)C (stereo unspecified)
20 | 552 | O=C1C2=C(O[B-](F)(F)[n+]3c2ccc2ccccc23)c2ccc(N3CCOCC3)c3cccc1c23

Row | SMILES | emission maximum [nm]
21 | N#CC(C#N)=C(/C=C/c1cn(-c2ccccc2)nc1-c1ccccc1)c1ccccc1 | 497

Same assay, conditions: in CCOC(C)=O

Row | SMILES | emission maximum [nm]
22 | N#CC(C#N)=C(/C=C/c1cn(-c2ccccc2)nc1-c1ccccc1)c1ccccc1 | 487

Same assay, conditions: in CN(C)C=O

Row | SMILES | emission maximum [nm]
23 | CSc1sc(C(N)=O)c2nnn(C)c(=O)c12 | 514
24 | NNC(=O)c1ccc(/C=C/c2ccc(C(=O)NN)cc2)cc1 | 395
25 | N#CC(C#N)=Cc1ccc2c(c1)[nH]c1c3ccccc3sc21 | 581
26 | N#CC(C#N)=C(/C=C/c1cn(-c2ccccc2)nc1-c1ccccc1)c1ccccc1 | 504

Same assay, conditions: in CO

Row | emission maximum [nm] | SMILES
27 | 339 | Cc1cc(C)nc(N)n1
28 | 521 | CSc1sc(C(N)=O)c2nnn(C)c(=O)c12
29 | 449 | COc1ccc(OC)c(C(C)=O)c1
30 | 620 | CN(C)c1ccc2c(c1)C(C)(C)C1=CC(=[N+](C)C)C=CC1=C2
31 | 558 | O=C1C2=C(O[B-](F)(F)[n+]3c2ccc2ccccc23)c2ccc(N3CCOCC3)c3cccc1c23

Row | SMILES | emission maximum [nm]
32 | N#CC(C#N)=C(/C=C/c1cn(-c2ccccc2)nc1-c1ccccc1)c1ccccc1 | 496

Same assay, conditions: in CS(C)=O

Row | SMILES | emission maximum [nm]
33 | CSc1sc(C(N)=O)c2nnn(C)c(=O)c12 | 527
34 | N#CC(C#N)=C(/C=C/c1cn(-c2ccccc2)nc1-c1ccccc1)c1ccccc1 | 509

Same assay, conditions: in Cc1ccccc1

Row | SMILES | emission maximum [nm]
35 | FC(F)(F)c1cc2n(n1)[B-]1(c3ccccc3-c3ccccc31)[n+]1ccc3ccccc3c1-2 | 538
36 | Cc1cc(N2c3ccccc3C(C)(C)c3ccccc32)ccc1-c1ncnc(-c2ccc(N3c4ccccc4C(C)(C)c4ccccc43)cc2C)c1C | 454
37 | CC(C)CCC[C@@H](C)[C@H]1CC[C@H]2[C@@H]3CC=C4C[C@@H](OC(=O)Oc5cc(/C=C/C=C/c6ccc(N(C)C)cc6)ccc5[N+](=O)[O-])CC[C@]4(C)[C@H]3CC[C@]12C | 595
38 | CCCCCCc1ccc(-n2c3[n+](c4c5ccccc5c5ccccc5c42)[B-](C)(C)c2cc(-n4c5ccccc5c5ccccc54)ccc2-3)cc1 | 410
39 | N#CC(C#N)=Cc1ccc2c(c1)[nH]c1c3ccccc3sc21 | 518
40 | N#CC(C#N)=C(/C=C/c1cn(-c2ccccc2)nc1-c1ccccc1)c1ccccc1 | 460

Same assay, conditions: in ClC(Cl)Cl

Row | emission maximum [nm] | SMILES
41 | 740 | Cc1ccc(/C2=c3\cc/c(o3)=C(\c3ccc(C)cc3)c3ccc([nH]3)-c3ccc4n3[P-](=O)(=O)[N+]3=C(C=CC3=C4c3ccc[nH]3)c3ccc2[nH]3)cc1
42 | 642 | F[B-]1(F)n2c(cc(Br)c2Br)C(c2ccccc2)=C2C=C(Br)C(c3ccc[nH]3)=[N+]21
43 | 515 | CN1CCc2cc(C3=Cc4cccc[n+]4[B-](F)(F)O3)ccc21
44 | 577 | Cc1ccc(-c2oc3cccc4c5c(-c6ccc(C)cc6)/c(=N/S(=O)(=O)C(F)(F)F)oc6cccc(c2c34)c65)cc1
45 | 618 | N#CC(C#N)=Cc1ccc(-c2ccc(N(c3ccccc3)c3ccccc3)cc2)o1

Row | SMILES | emission maximum [nm]
46 | N#CC(C#N)=C(/C=C/c1cn(-c2ccccc2)nc1-c1ccccc1)c1ccccc1 | 488

Same assay, conditions: in ClCCl

Row | SMILES | emission maximum [nm]
47 | FC(F)(F)c1cc2n(n1)[B-]1(c3ccccc3-c3ccccc31)[n+]1ccc3ccccc3c1-2 | 564
48 | COc1cc(-c2cnc(-c3ccncc3)o2)cc(OC)c1OC | 465
49 | c1ccc2c(C3=C(c4cccc5ccccc45)c4cccc5c4c(cc4nc6ccccc6nc45)O3)cccc2c1 | 538
50 | O=C1C2=C(O[B-](F)(F)[n+]3c2ccc2ccccc23)c2ccc(N3CCOCC3)c3cccc1c23 | 544
51 | CCCCCCc1ccc(-n2c3[n+](c4c5ccccc5c5ccccc5c42)[B-](C)(C)c2cc(-n4c5ccccc5c5ccccc54)ccc2-3)cc1 | 408
52 | N#CC(C#N)=Cc1ccc2c(c1)[nH]c1c3ccccc3sc21 | 544
53 | N#CC(C#N)=C(/C=C/c1cn(-c2ccccc2)nc1-c1ccccc1)c1ccccc1 | 489

Same assay, conditions: in O

Row | emission maximum [nm] | SMILES
54 | 342 | Cc1cc(C)nc(N)n1
55 | 621 | CN(C)c1ccc2c(c1)C(C)(C)C1=CC(=[N+](C)C)C=CC1=C2

Same assay, conditions: in O=P(c1ccccc1)(c1ccccc1)c1ccccc1Oc1ccccc1P(=O)(c1ccccc1)c1ccccc1

Row | SMILES | emission maximum [nm]
56 | Cc1cc(N2c3ccccc3C(C)(C)c3ccccc32)ccc1-c1ncnc(-c2ccc(N3c4ccccc4C(C)(C)c4ccccc43)cc2C)c1C | 454

Source: the Deep4Chem optical property database
